Reference: ChEMBL document CHEMBL4190367, “Heterocyclic pharmacochemistry of new rhinovirus antiviral agents: A combined computational and experimental study” (Eur J Med Chem, 2017)

System: rhinovirus B14
Test: Antiviral activity against Human rhinovirus B14 infected in human HeLa Rh cells assessed as protection against virus induced cytopathic effect after 3 days in presence of 10% inactivated FBS by MTT assay
Assay type: functional, organism-based
Conditions: Rhinovirus B, 72 h

Row | SMILES | EC50
1 | COc1cc(CC(O)c2ccc(N3CCOCC3)cc2)c([N+](=O)[O-])cc1OC (stereo not drawn) | 11.7 µM
2 | COc1cc(C[C@@H](O)c2ccc(C(F)(F)F)cc2)c([N+](=O)[O-])cc1OC | > 200 µM
3 | COc1cc(CC(O)c2ccc(-c3ccsc3)cc2)c([N+](=O)[O-])cc1OC (stereo not drawn) | 0.54 µM
4 | COc1cc(CC(O)c2ccc(N3CCCC3)cc2)c([N+](=O)[O-])cc1OC (stereo not drawn) | 1.94 µM
5 | COc1cc(C[C@@H](O)c2ccc(-n3cncn3)cc2)c([N+](=O)[O-])cc1OC | > 50 µM
6 | COc1cc(CC(O)c2ccc(-c3cc(C(F)(F)F)nn3C)cc2)c([N+](=O)[O-])cc1OC (stereo not drawn) | > 222 µM
7 | COc1cc(CC(O)c2ccc(N3CCCCC3)cc2)c([N+](=O)[O-])cc1OC (stereo not drawn) | 1.88 µM
8 | COc1cc(CC(O)c2cccnc2)c([N+](=O)[O-])cc1OC (stereo not drawn) | 2 µM
9 | COc1cc(CC(O)c2ccc(-n3cccn3)cc2)c([N+](=O)[O-])cc1OC (stereo not drawn) | 0.58 µM
10 | COc1cc(C[C@@H](O)c2ccncc2)c([N+](=O)[O-])cc1OC | > 200 µM
11 | COc1cc(C[C@@H](O)c2ccc(C#N)cc2)c([N+](=O)[O-])cc1OC | 10.6 µM
12 | COc1cc(C[C@H](O)c2ccncc2)c([N+](=O)[O-])cc1OC | 1.16 µM
13 | COc1cc(C[C@H](O)c2cccnc2)c([N+](=O)[O-])cc1OC | 0.59 µM
14 | COc1cc(C[C@H](O)c2ccc(-n3cccn3)cc2)c([N+](=O)[O-])cc1OC | 0.35 µM
15 | CCOC(=O)N1CCN(c2ccc(C(O)Cc3cc(OC)c(OC)cc3[N+](=O)[O-])cc2)CC1 (stereo not drawn) | 18.1 µM
16 | COc1cc(C[C@@H](O)c2ccc(-c3cn[nH]c3)cc2)c([N+](=O)[O-])cc1OC | 35.6 µM
17 | COc1cc(C[C@H](O)c2ccc(-n3cncn3)cc2)c([N+](=O)[O-])cc1OC | 0.34 µM

Row | SMILES | EC50
18 | COc1cc(CC(O)c2ccc(N3CCNCC3)cc2)c([N+](=O)[O-])cc1OC (stereo not drawn) | 238 µM
19 | COc1cc(CC(O)c2ccc(N3CCC(C)CC3)cc2)c([N+](=O)[O-])cc1OC (stereo not drawn) | 1.91 µM
20 | COc1cc(CC(O)c2ccc(-c3cn[nH]c3)cc2)c([N+](=O)[O-])cc1OC (stereo not drawn) | 0.76 µM
21 | COc1cc(C[C@@H](O)c2cccnc2)c([N+](=O)[O-])cc1OC | > 200 µM
22 | COc1cc(CC(O)c2ccc(-c3cnn(C)c3)cc2)c([N+](=O)[O-])cc1OC (stereo not drawn) | > 270 µM
23 | COc1cc(CC(O)c2ccc(C#N)cc2)c([N+](=O)[O-])cc1OC (stereo not drawn) | 2.3 µM
24 | COc1cc(CC(O)c2ccc(-c3cncnc3)cc2)c([N+](=O)[O-])cc1OC (stereo not drawn) | 2.22 µM
25 | COc1cc(CC(O)c2ccc(-n3cncn3)cc2)c([N+](=O)[O-])cc1OC (stereo not drawn) | 0.92 µM
26 | COc1cc(CC(O)c2ccc(C(F)(F)F)cc2)c([N+](=O)[O-])cc1OC (stereo not drawn) | 2 µM
27 | COc1cc(C[C@@H](O)c2ccc(-n3cccn3)cc2)c([N+](=O)[O-])cc1OC | 42 µM
28 | COc1cc(C[C@H](O)c2ccc(C(F)(F)F)cc2)c([N+](=O)[O-])cc1OC | 0.46 µM
29 | COc1cc(CC(O)c2ccc(-c3ccc(C(F)(F)F)nc3)cc2)c([N+](=O)[O-])cc1OC (stereo not drawn) | 8.96 µM
30 | COc1cc(CC(O)c2ccc(-c3ccco3)cc2)c([N+](=O)[O-])cc1OC (stereo not drawn) | 0.61 µM
31 | COc1cc(C[C@H](O)c2ccc(C#N)cc2)c([N+](=O)[O-])cc1OC | 0.26 µM
32 | COc1cc(CC(O)c2ccncc2)c([N+](=O)[O-])cc1OC (stereo not drawn) | 3.4 µM
33 | COc1cc(C[C@H](O)c2ccc(-c3cn[nH]c3)cc2)c([N+](=O)[O-])cc1OC | 0.25 µM

System: not listed separately
Test: Selectivity index, ratio of CC50 for un-infected human HeLa Rh cells to EC50 for Human rhinovirus B14 infected in human HeLa Rh cells
Assay type: toxicity, cell-based
Conditions: read-out: Ratio CC50/EC50

Row | SMILES | selectivity ratio
34 | COc1cc(CC(O)c2ccc(N3CCOCC3)cc2)c([N+](=O)[O-])cc1OC (stereo not drawn) | 16.5
35 | COc1cc(CC(O)c2ccc(-c3ccsc3)cc2)c([N+](=O)[O-])cc1OC (stereo not drawn) | 21.3
36 | COc1cc(CC(O)c2ccc(N3CCCC3)cc2)c([N+](=O)[O-])cc1OC (stereo not drawn) | > 139
37 | Cc1cc(CCCOc2c(C)cc(-c3noc(C(F)(F)F)n3)cc2C)on1 [PLECONARIL] | > 437
38 | COc1cc(CC(O)c2ccc(N3CCCCC3)cc2)c([N+](=O)[O-])cc1OC (stereo not drawn) | 28.7
39 | COc1cc(CC(O)c2cccnc2)c([N+](=O)[O-])cc1OC (stereo not drawn) | > 131
40 | COc1cc(CC(O)c2ccc(-n3cccn3)cc2)c([N+](=O)[O-])cc1OC (stereo not drawn) | > 467
41 | COc1cc(C[C@@H](O)c2ccc(C#N)cc2)c([N+](=O)[O-])cc1OC | 16.8
42 | COc1cc(C[C@H](O)c2ccncc2)c([N+](=O)[O-])cc1OC | > 172
43 | COc1cc(C[C@H](O)c2cccnc2)c([N+](=O)[O-])cc1OC | > 339
44 | COc1cc(C[C@H](O)c2ccc(-n3cccn3)cc2)c([N+](=O)[O-])cc1OC | > 774
45 | CCOC(=O)N1CCN(c2ccc(C(O)Cc3cc(OC)c(OC)cc3[N+](=O)[O-])cc2)CC1 (stereo not drawn) | 1.9
46 | COc1cc(C[C@@H](O)c2ccc(-c3cn[nH]c3)cc2)c([N+](=O)[O-])cc1OC | > 7.74
47 | COc1cc(C[C@H](O)c2ccc(-n3cncn3)cc2)c([N+](=O)[O-])cc1OC | > 797
48 | COc1cc(CC(O)c2ccc(N3CCC(C)CC3)cc2)c([N+](=O)[O-])cc1OC (stereo not drawn) | > 131
49 | COc1cc(CC(O)c2ccc(-c3cn[nH]c3)cc2)c([N+](=O)[O-])cc1OC (stereo not drawn) | > 356
50 | COc1cc(CC(O)c2ccc(C#N)cc2)c([N+](=O)[O-])cc1OC (stereo not drawn) | 77.3
51 | COc1cc(CC(O)c2ccc(-c3cncnc3)cc2)c([N+](=O)[O-])cc1OC (stereo not drawn) | > 122
52 | COc1cc(CC(O)c2ccc(-n3cncn3)cc2)c([N+](=O)[O-])cc1OC (stereo not drawn) | > 295
53 | COc1cc(C[C@@H](O)c2ccc(-n3cccn3)cc2)c([N+](=O)[O-])cc1OC | > 6.5
54 | COc1cc(C[C@H](O)c2ccc(C(F)(F)F)cc2)c([N+](=O)[O-])cc1OC | 90.8
55 | COc1cc(CC(O)c2ccc(-c3ccc(C(F)(F)F)nc3)cc2)c([N+](=O)[O-])cc1OC (stereo not drawn) | 16.9
56 | COc1cc(CC(O)c2ccc(-c3ccco3)cc2)c([N+](=O)[O-])cc1OC (stereo not drawn) | 52.5
57 | COc1cc(C[C@H](O)c2ccc(C#N)cc2)c([N+](=O)[O-])cc1OC | 685
58 | COc1cc(CC(O)c2ccncc2)c([N+](=O)[O-])cc1OC (stereo not drawn) | > 77
59 | COc1cc(C[C@H](O)c2ccc(-c3cn[nH]c3)cc2)c([N+](=O)[O-])cc1OC | > 1080

System: not listed separately
Test: Cytotoxicity in un-infected human HeLa Rh cells assessed as reduction in cell viability incubated for 3 days by MTT assay
Assay type: cell-based
Conditions: not given

Row | SMILES | CC50 at 72 h
60 | COc1cc(CC(O)c2ccc(N3CCOCC3)cc2)c([N+](=O)[O-])cc1OC (stereo not drawn) | 193 µM
61 | COc1cc(C[C@@H](O)c2ccc(C(F)(F)F)cc2)c([N+](=O)[O-])cc1OC | 13.9 µM
62 | COc1cc(CC(O)c2ccc(-c3ccsc3)cc2)c([N+](=O)[O-])cc1OC (stereo not drawn) | 11.5 µM
63 | COc1cc(CC(O)c2ccc(N3CCCC3)cc2)c([N+](=O)[O-])cc1OC (stereo not drawn) | > 269 µM
64 | COc1cc(C[C@@H](O)c2ccc(-n3cncn3)cc2)c([N+](=O)[O-])cc1OC | > 271 µM
65 | Cc1cc(CCCOc2c(C)cc(-c3noc(C(F)(F)F)n3)cc2C)on1 [PLECONARIL] | > 131 µM
66 | COc1cc(CC(O)c2ccc(-c3cc(C(F)(F)F)nn3C)cc2)c([N+](=O)[O-])cc1OC (stereo not drawn) | 12.1 µM
67 | COc1cc(CC(O)c2ccc(N3CCCCC3)cc2)c([N+](=O)[O-])cc1OC (stereo not drawn) | 53.9 µM
68 | COc1cc(CC(O)c2cccnc2)c([N+](=O)[O-])cc1OC (stereo not drawn) | > 263 µM
69 | COc1cc(CC(O)c2ccc(-n3cccn3)cc2)c([N+](=O)[O-])cc1OC (stereo not drawn) | > 271 µM
70 | COc1cc(C[C@@H](O)c2ccncc2)c([N+](=O)[O-])cc1OC | 55.2 µM
71 | COc1cc(C[C@@H](O)c2ccc(C#N)cc2)c([N+](=O)[O-])cc1OC | 178 µM
72 | COc1cc(C[C@H](O)c2ccncc2)c([N+](=O)[O-])cc1OC | > 200 µM
73 | COc1cc(C[C@H](O)c2cccnc2)c([N+](=O)[O-])cc1OC | > 200 µM
74 | COc1cc(C[C@H](O)c2ccc(-n3cccn3)cc2)c([N+](=O)[O-])cc1OC | > 271 µM
75 | CCOC(=O)N1CCN(c2ccc(C(O)Cc3cc(OC)c(OC)cc3[N+](=O)[O-])cc2)CC1 (stereo not drawn) | 33.8 µM
76 | COc1cc(C[C@@H](O)c2ccc(-c3cn[nH]c3)cc2)c([N+](=O)[O-])cc1OC | > 271 µM

Row | SMILES | CC50 at 72 h
77 | COc1cc(C[C@H](O)c2ccc(-n3cncn3)cc2)c([N+](=O)[O-])cc1OC | > 271 µM
78 | COc1cc(CC(O)c2ccc(N3CCNCC3)cc2)c([N+](=O)[O-])cc1OC (stereo not drawn) | > 258 µM
79 | COc1cc(CC(O)c2ccc(N3CCC(C)CC3)cc2)c([N+](=O)[O-])cc1OC (stereo not drawn) | > 250 µM
80 | COc1cc(CC(O)c2ccc(-c3cn[nH]c3)cc2)c([N+](=O)[O-])cc1OC (stereo not drawn) | > 271 µM
81 | COc1cc(C[C@@H](O)c2cccnc2)c([N+](=O)[O-])cc1OC | > 200 µM
82 | COc1cc(CC(O)c2ccc(-c3cnn(C)c3)cc2)c([N+](=O)[O-])cc1OC (stereo not drawn) | 17.4 µM
83 | COc1cc(CC(O)c2ccc(C#N)cc2)c([N+](=O)[O-])cc1OC (stereo not drawn) | 178 µM
84 | COc1cc(CC(O)c2ccc(-c3cncnc3)cc2)c([N+](=O)[O-])cc1OC (stereo not drawn) | > 271 µM
85 | COc1cc(CC(O)c2ccc(-n3cncn3)cc2)c([N+](=O)[O-])cc1OC (stereo not drawn) | > 271 µM
86 | COc1cc(CC(O)c2ccc(C(F)(F)F)cc2)c([N+](=O)[O-])cc1OC (stereo not drawn) | 49.7 µM
87 | COc1cc(C[C@@H](O)c2ccc(-n3cccn3)cc2)c([N+](=O)[O-])cc1OC | > 271 µM
88 | COc1cc(C[C@H](O)c2ccc(C(F)(F)F)cc2)c([N+](=O)[O-])cc1OC | 41.8 µM
89 | COc1cc(CC(O)c2ccc(-c3ccc(C(F)(F)F)nc3)cc2)c([N+](=O)[O-])cc1OC (stereo not drawn) | 152 µM
90 | COc1cc(CC(O)c2ccc(-c3ccco3)cc2)c([N+](=O)[O-])cc1OC (stereo not drawn) | 32 µM
91 | COc1cc(C[C@H](O)c2ccc(C#N)cc2)c([N+](=O)[O-])cc1OC | 178 µM
92 | COc1cc(CC(O)c2ccncc2)c([N+](=O)[O-])cc1OC (stereo not drawn) | > 263 µM
93 | COc1cc(C[C@H](O)c2ccc(-c3cn[nH]c3)cc2)c([N+](=O)[O-])cc1OC | > 271 µM
